Measured values: ChEMBL document CHEMBL2380239, “Novel ROS-activated agents utilize a tethered amine to selectively target acute myeloid leukemia” (Bioorg Med Chem Lett, 2013)

System: HeLa
Assay: Cytotoxicity against human HeLa cells after 48 hrs by MTT assay
Format: functional, cell-based

`CN(CCCBr)c1ccccc1` was tested, and the IC50 was greater than 125 µM.
Compound `Oc1ccc(OCCNc2ccccc2)cc1` has an IC50 of 30 µM.
Work on `CN(CCOc1ccc(O)cc1)c1ccccc1` yielded an IC50 of 18 µM.
`CCN(CCOc1ccc(O)cc1)c1ccccc1` showed an IC50 of 23 µM.
